Test results: US10758534B2 (Vertex Pharmaceuticals Incorporated, priority 2014, dated 2020)

biological target: T1, F508del (Homo sapiens, UniProt P13569, DEL508-508); assay: Protocol 2: FRET membrane potential optical assay (VIPR), identification of correction compounds; type: cell-based; details: Table 3; compounds of Table 1 as modulators of CFTR activity; protocol not stated
T1 construct: expressed in transfected cells
How it was run: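 NIH3T3 mouse fibroblasts stably expressing F508del-CFTR incubated with compound 16 h at 37 °C in serum-free medium, then loaded with CC2-DMPE/DiSBAC2(3) FRET dyes. Channel activated with 10 μM forskolin plus 20 μM genistein in Cl⁻-free (gluconate) bath; depolarisation from Cl⁻ efflux read on VIPR II.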

T1 sequence (P13569 with tags, fused parts or gaps DEL508-508): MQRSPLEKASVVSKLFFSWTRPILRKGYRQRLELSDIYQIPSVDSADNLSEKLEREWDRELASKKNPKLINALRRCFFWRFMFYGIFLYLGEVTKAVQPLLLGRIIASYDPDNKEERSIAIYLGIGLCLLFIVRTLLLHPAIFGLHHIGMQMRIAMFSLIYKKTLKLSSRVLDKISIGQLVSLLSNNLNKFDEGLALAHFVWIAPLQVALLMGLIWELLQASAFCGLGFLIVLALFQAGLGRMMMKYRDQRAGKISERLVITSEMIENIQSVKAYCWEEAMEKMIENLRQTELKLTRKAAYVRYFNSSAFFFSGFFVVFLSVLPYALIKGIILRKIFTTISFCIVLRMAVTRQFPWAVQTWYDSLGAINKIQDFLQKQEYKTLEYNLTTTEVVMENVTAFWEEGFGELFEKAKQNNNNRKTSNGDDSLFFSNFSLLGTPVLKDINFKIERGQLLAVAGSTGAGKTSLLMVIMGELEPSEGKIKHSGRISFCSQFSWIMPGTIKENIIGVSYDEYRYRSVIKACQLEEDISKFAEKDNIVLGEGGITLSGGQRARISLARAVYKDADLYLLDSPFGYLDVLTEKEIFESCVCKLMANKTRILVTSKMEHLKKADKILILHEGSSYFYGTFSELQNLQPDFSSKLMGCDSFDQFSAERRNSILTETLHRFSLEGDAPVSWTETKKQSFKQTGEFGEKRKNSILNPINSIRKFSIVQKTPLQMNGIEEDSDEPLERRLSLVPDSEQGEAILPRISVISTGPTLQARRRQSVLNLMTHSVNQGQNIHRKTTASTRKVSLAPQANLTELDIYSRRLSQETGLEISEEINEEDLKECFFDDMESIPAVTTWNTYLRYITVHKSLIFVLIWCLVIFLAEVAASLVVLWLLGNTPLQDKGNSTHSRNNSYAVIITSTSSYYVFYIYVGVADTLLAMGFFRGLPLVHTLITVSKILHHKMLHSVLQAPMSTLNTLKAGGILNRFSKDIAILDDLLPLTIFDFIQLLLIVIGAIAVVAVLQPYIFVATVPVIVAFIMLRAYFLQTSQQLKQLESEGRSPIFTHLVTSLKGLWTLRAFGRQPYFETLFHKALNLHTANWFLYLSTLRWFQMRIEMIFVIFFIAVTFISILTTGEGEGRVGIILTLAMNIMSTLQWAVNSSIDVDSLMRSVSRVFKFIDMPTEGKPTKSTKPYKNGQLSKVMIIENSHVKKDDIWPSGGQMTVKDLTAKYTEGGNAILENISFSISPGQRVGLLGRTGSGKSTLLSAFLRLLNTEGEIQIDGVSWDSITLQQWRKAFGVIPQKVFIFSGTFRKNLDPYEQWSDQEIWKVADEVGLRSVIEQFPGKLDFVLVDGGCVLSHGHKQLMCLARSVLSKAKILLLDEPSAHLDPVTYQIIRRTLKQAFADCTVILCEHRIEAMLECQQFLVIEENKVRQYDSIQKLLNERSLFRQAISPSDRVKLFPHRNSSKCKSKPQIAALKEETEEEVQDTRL

EC30	SMILES
++ (“++” means between 3 uM and 10 uM)	Cc1cc(C)c(Oc2nc(-c3cnn(C)c3C)ccc2C(=O)NS(=O)(=O)c2cccc(N)n2)c(C)c1 [Compound 584, N-[(6-amino-2-pyridyl)sulfonyl]-6-(1,5-dimethylpyrazol-4-yl)-2-(2,4,6-trimethylphenoxy)pyridine-3-carboxamide]
+++ (“+++” means <3 uM)	CCOc1cc(F)cc(-c2ccc(C(=O)NS(=O)(=O)c3cc[nH]n3)c(Oc3c(C)cc(C)cc3C)n2)c1 [Compound 585, 6-(3-ethoxy-5-fluoro-phenyl)-N-(1H-pyrazol-3-ylsulfonyl)-2-(2,4,6-trimethylphenoxy)pyridine-3-carboxamide]
++ (“++” means between 3 uM and 10 uM)	CC(C)Oc1ccc(-c2ccc(C(=O)NS(=O)(=O)c3cccc(N)n3)c(N3CCc4ccccc43)n2)cn1 [Compound 588, N-[(6-amino-2-pyridyl)sulfonyl]-2-indolin-1-yl-6-(6-isopropoxy-3-pyridyl)pyridine-3-carboxamide]
+++ (“+++” means <3 uM)	CC(C)c1ccc(-c2ccc(C(=O)NS(=O)(=O)c3ccc[nH]c3=O)c(N3[C@H](C)CC[C@@H]3C)n2)cc1 [Compound 589, 2-[(2S,5R)-2,5-dimethylpyrrolidin-1-yl]-6-(4-isopropylphenyl)-N-[(2-oxo-1H-pyridin-3-yl)sulfonyl]pyridine-3-carboxamide]
++ (“++” means between 3 uM and 10 uM)	Cc1cc(C)c(Oc2nc(C)ccc2C(=O)NS(=O)(=O)c2cccc(NC3CC3)n2)c(C)c1 [Compound 594, N-[[6-(cyclopropylamino)-2-pyridyl]sulfonyl]-6-methyl-2-(2,4,6-trimethylphenoxy)pyridine-3-carboxamide]
+++ (“+++” means <3 uM)	Cc1cc(C)c(Oc2nc(-c3ccccc3)ccc2C(=O)NS(=O)(=O)c2cccc(NCCO)n2)c(C)c1 [Compound 595, N-[[6-(2-hydroxyethylamino)-2-pyridyl]sulfonyl]-6-phenyl-2-(2,4,6-trimethylphenoxy)pyridine-3-carboxamide]
++ (“++” means between 3 uM and 10 uM)	CC(C)Oc1ccc(-c2ccc(C(=O)NS(=O)(=O)c3cccc(N)n3)c(N3CC4C(C3)C4(C)C)n2)cn1 (centres unmarked) [Compound 596, N-[(6-amino-2-pyridyl)sulfonyl]-2-(6,6-dimethyl-3-azabicyclo[3.1.0]hexan-3-yl)-6-(6-isopropoxy-3-pyridyl)pyridine-3-carboxamide]
+++ (“+++” means <3 uM)	CC(C)Oc1ccc(-c2ccc(C(=O)NS(=O)(=O)c3cccc(N)n3)c(N3CCCC3C(C)(C)C)n2)cn1 (centres unmarked) [Compound 597, N-[(6-amino-2-pyridyl)sulfonyl]-2-(2-tert-butylpyrrolidin-1-yl)-6-(6-isopropoxy-3-pyridyl)pyridine-3-carboxamide]
++ (“++” means between 3 uM and 10 uM)	COc1cc2cc(C(=O)NS(=O)(=O)c3cccc(N)c3)n(Cc3c(C)cc(C)cc3C)c2cc1OC [Compound 598, N-(3-aminophenyl)sulfonyl-5,6-dimethoxy-1-[(2,4,6-trimethylphenyl)methyl]indole-2-carboxamide]
+++ (“+++” means <3 uM)	CCOc1ccc(F)c(-c2ccc(C(=O)NS(=O)(=O)c3cccc(N)n3)c(Oc3c(C)cc(C)cc3C)n2)c1 [Compound 599, N-[(6-amino-2-pyridyl)sulfonyl]-6-(5-ethoxy-2-fluoro-phenyl)-2-(2,4,6-trimethylphenoxy)pyridine-3-carboxamide]
+++ (“+++” means <3 uM)	CC1CCN(c2nc(-c3cc(F)cc(OC(C)C)c3)ccc2C(=O)NS(=O)(=O)c2cccc(N)n2)CC1 [Compound 600, N-[(6-amino-2-pyridyl)sulfonyl]-6-(3-fluoro-5-isopropoxy-phenyl)-2-(4-methyl-1-piperidyl)pyridine-3-carboxamide]
+++ (“+++” means <3 uM)	CC(C)Oc1ccc(-c2ccc(C(=O)NS(=O)(=O)c3cccc(N)n3)c(N3C(C)CC(c4ccccc4)C3C)n2)cn1 (centres unmarked) [Compound 601, N-[(6-amino-2-pyridyl)sulfonyl]-2-(2,5-dimethyl-3-phenyl-pyrrolidin-1-yl)-6-(6-isopropoxy-3-pyridyl)pyridine-3-carboxamide]
+++ (“+++” means <3 uM)	CCOc1ccc(-c2ccc(C(=O)NS(=O)(=O)c3cccc(N)n3)c(Oc3c(C)cc(C)cc3C)n2)c(F)c1 [Compound 602, N-[(6-amino-2-pyridyl)sulfonyl]-6-(4-ethoxy-2-fluoro-phenyl)-2-(2,4,6-trimethylphenoxy)pyridine-3-carboxamide]
+++ (“+++” means <3 uM)	Cc1cccc(C)c1Cn1nc(C(C)(C)C)cc1C(=O)NS(=O)(=O)c1ccsc1 [Compound 603, 5-tert-butyl-2-[(2,6-dimethylphenyl)methyl]-N-(3-thienylsulfonyl)pyrazole-3-carboxamide]
+++ (“+++” means <3 uM)	Cc1cc(C)c(CN2c3ccccc3CCCC2C(=O)NS(=O)(=O)c2ccccc2)c(C)c1 (centres unmarked) [Compound 604, N-(benzenesulfonyl)-1-[(2,4,6-trimethylphenyl)methyl]-2,3,4,5-tetrahydro-1-benzazepine-2-carboxamide]
++ (“++” means between 3 uM and 10 uM)	COCC1CCN(c2nc(-c3ccc(OC(C)C)nc3)ccc2C(=O)NS(=O)(=O)c2cccc(N)n2)CC1 [Compound 606, N-[(6-amino-2-pyridyl)sulfonyl]-6-(6-isopropoxy-3-pyridyl)-2-[4-(methoxymethyl)-1-piperidyl]pyridine-3-carboxamide]
+++ (“+++” means <3 uM)	Cc1ccc(-c2ccc(C(=O)NS(=O)(=O)c3nccnc3N)c(Oc3ccc(C)cc3C)n2)cc1 [Compound 607, N-(3-aminopyrazin-2-yl)sulfonyl-2-(2,4-dimethylphenoxy)-6-(p-tolyl)pyridine-3-carboxamide]
++ (“++” means between 3 uM and 10 uM)	COc1cc(F)ccc1-c1ccc(C(=O)NS(=O)(=O)c2ccc[nH]c2=O)c(Oc2c(C)cc(C)cc2C)n1 [Compound 608, 6-(4-fluoro-2-methoxy-phenyl)-N-[(2-oxo-1H-pyridin-3-yl)sulfonyl]-2-(2,4,6-trimethylphenoxy)pyridine-3-carboxamide]
+++ (“+++” means <3 uM)	Cc1ccc(-c2ccc(C(=O)NS(=O)(=O)c3cc[nH]n3)c(Oc3ccc(C)cc3C)n2)cc1 [Compound 610, 2-(2,4-dimethylphenoxy)-6-(p-tolyl)-N-(1H-pyrazol-3-ylsulfonyl)pyridine-3-carboxamide]

SMILES	EC30
CC(C)COc1cc(F)cc(-c2ccc(C(=O)NS(=O)(=O)c3ccccc3)c(N3CCC(C)(C)CC3)n2)c1 [Compound 583, N-(benzenesulfonyl)-2-(4,4-dimethyl-1-piperidyl)-6-(3-fluoro-5-isobutoxy-phenyl)pyridine-3-carboxamide]	+++ (“+++” means <3 uM)
Cc1cc(C)c(Oc2nc(-c3cc(F)cc(OCC(C)C)c3)ccc2C(=O)NS(=O)(=O)c2cncc(N)n2)c(C)c1 [Compound 586, N-(6-aminopyrazin-2-yl)sulfonyl-6-(3-fluoro-5-isobutoxy-phenyl)-2-(2,4,6-trimethylphenoxy)pyridine-3-carboxamide]	+++ (“+++” means <3 uM)
CC(C)COc1cc(F)cc(-c2ccc(C(=O)NS(=O)(=O)c3cccc(N)n3)c(N3CC(C)CC3C)n2)c1 (centres unmarked) [Compound 587, N-[(6-amino-2-pyridyl)sulfonyl]-2-(2,4-dimethylpyrrolidin-1-yl)-6-(3-fluoro-5-isobutoxy-phenyl)pyridine-3-carboxamide]	+++ (“+++” means <3 uM)
Cc1ccc(Oc2nc(-c3cc(F)cc(OCC(C)C)c3)ccc2C(=O)NS(=O)(=O)c2cccc(N)n2)c(C)c1 [Compound 590, N-[(6-amino-2-pyridyl)sulfonyl]-2-(2,4-dimethylphenoxy)-6-(3-fluoro-5-isobutoxy-phenyl)pyridine-3-carboxamide]	+++ (“+++” means <3 uM)
CC[C@@H]1CCCN1c1nc(-c2cc(F)cc(OCC(C)C)c2)ccc1C(=O)NS(=O)(=O)c1ccn[nH]1 [Compound 591, 2-(2-ethylpyrrolidin-1-yl)-6-(3-fluoro-5-isobutoxy-phenyl)-N-(1H-pyrazol-5-ylsulfonyl)pyridine-3-carboxamide]	+++ (“+++” means <3 uM)
CC(C)COc1cc(F)cc(-c2ccc(C(=O)NS(=O)(=O)c3cccc(N)n3)c(N3CCCC3)n2)c1 [Compound 592, N-[(6-amino-2-pyridyl)sulfonyl]-6-(3-fluoro-5-isobutoxy-phenyl)-2-pyrrolidin-1-yl-pyridine-3-carboxamide]	+++ (“+++” means <3 uM)
CC(C)COc1cc(F)cc(-c2ccc(C(=O)NS(=O)(=O)c3cccc(N)n3)c(N3CCCC3C3CC3)n2)c1 (centres unmarked) [Compound 593, N-[(6-amino-2-pyridyl)sulfonyl]-2-(2-cyclopropylpyrrolidin-1-yl)-6-(3-fluoro-5-isobutoxy-phenyl)pyridine-3-carboxamide]	+++ (“+++” means <3 uM)
CC(C)COc1cc(F)cc(-c2ccc(C(=O)NS(=O)(=O)c3ccc[nH]c3=O)c(N3C[C@H](C)CC3(C)C)n2)c1 [Compound 605, 6-(3-fluoro-5-isobutoxy-phenyl)-N-[(2-oxo-1H-pyridin-3-yl)sulfonyl]-2-[(4R)-2,2,4-trimethylpyrrolidin-1-yl]pyridine-3-carboxamide]	+++ (“+++” means <3 uM)
CC(C)COc1cc(F)cc(-c2ccc(C(=O)NS(=O)(=O)c3cccc(N)n3)c(N3CC4C(C3)C4(C)C)n2)c1 (centres unmarked) [Compound 609, N-[(6-amino-2-pyridyl)sulfonyl]-2-(6,6-dimethyl-3-azabicyclo[3.1.0]hexan-3-yl)-6-(3-fluoro-5-isobutoxy-phenyl)pyridine-3-carboxamide]	+++ (“+++” means <3 uM)
CC(C)COc1cc(F)cc(-c2ccc(C(=O)NS(=O)(=O)c3cccc(N)n3)c(N3CCC(C(C)(C)C)C3)n2)c1 (centres unmarked) [Compound 611, N-[(6-amino-2-pyridyl)sulfonyl]-2-(3-tert-butylpyrrolidin-1-yl)-6-(3-fluoro-5-isobutoxy-phenyl)pyridine-3-carboxamide]	+++ (“+++” means <3 uM)
